The record followed here is paper PMC12024191, “Pharmacological and Molecular Docking Investigation of Leaves of Eriobotrya japonica: Antioxidant, Enzyme Inhibition, and Anti-Inflammatory Effects” (Antioxidants, 2025).

Like-named read-outs stand apart in the source and are kept apart here.

The nature of test [1]: Radical scavenging activity of DPPH. The following applies: for EC50: isolated components (Table 4), read-out: SC50 DPPH. As to the method: According to the method reported in [48], a DPPH radical solution (400 μM) was prepared in EtOH. The tested samples were diluted to the desired concentrations with EtOH. In a 96-well plate, diluted tested sample solution (100 μL) was mixed with 100 μL of the DPPH radical solution (200 μM). The mixture was allowed to react at room temperature for 30 min in the dark. After the reaction, the absorbance at 520 nm was measured using an ELISA reader (TECAN Sunrise, Männedorf, Schweiz). The scavenging activity was calculated using the following equation. Scavenging rate (%) = (Acontrol − Asample)/Acontrol × 100% where Acontrol was the absorbance of the control and Asample was that of the tested sample.
(In general: Loss of DPPH colour is used to gauge radical scavenging.)

Test [2] can be described thus: Radical scavenging activity of ABTS. The following applies: for EC50: isolated components (Table 4), read-out: SC50 ABTS. As to the method: According to the method reported in [49], ABTS solution (28 mM) was mixed with potassium permanganate solution (9.6 mM) in an equal ratio (v/v = 1:1) and allowed to react at room temperature in the dark for 16 h to generate the ABTS radical solution. The ABTS radical solution was then diluted with EtOH until the absorbance reached 0.70 ± 0.02 at 740 nm. The tested samples were subsequently diluted to the desired concentrations with EtOH. In a 96-well plate, the ABTS radical solution (190 μL) was mixed with the sample solution (10 μL) and was allowed to react at room temperature for 6 min in the dark. The absorbance was then measured at 740 nm using an ELISA reader. The scavenging activity was calculated using the following equation. Scavenging rate (%) = (Acontrol − Asample)/Acontrol × 100% where Acontrol was the absorbance of the control and Asample was that of the tested sample.

Test [3] is described as follows: Radical scavenging activity of superoxide. The following applies: for EC50: isolated components (Table 4), read-out: SC50 Superoxide. As to the method:
According to a previously reported procedure, the superoxide radical solution was prepared in Tris-HCl buffer (16 mM, pH 8.0) containing 300 µM NBT (50 µL), 120 µM PMS (50 µL), and tested sample solution (50 µL). […] The absorbance at 560 nm was measured using an ELISA reader, and the scavenging activity was calculated by the following equation. Scavenging rate (%) = (Acontrol − Asample)/Acontrol × 100% where Acontrol was the absorbance of the control and Asample was that of the tested sample.

Test [4] is described as follows: Ferric reducing antioxidant power (FRAP). As to the method: According to the previously published methods, acetate buffer (pH 3.6), FeCl3 solution (20 mM), and 10 m TPTZ solution (prepared in 40 mM HCl) were mixed in a ratio of 10:1:1 to generate the FRAP working solution. Then, the working solution was warmed to 37 °C before being used. The diluted sample, blank, or standard solution (100 µL) was mixed with the warm-up working solution (900 µL) and incubated for 40 min in a dry bath at 37 °C. The absorbance at 593 nm was measured using an ELISA reader. The standard curve was linear from 0 to 100 mM Trolox, and the data were expressed as mM TE/g dry weight.

In another test the target is T1, α-glucosidase (Saccharomyces cerevisiae, UniProt P53341).
T1 construct: purchased Sigma-Aldrich
Put plainly: Enzyme inhibition assay of α-glucosidase. Type of test: biochemical, S. cerevisiae. As to the method: The inhibitory activity of α-glucosidase was determined based on the previously reported method. The α-glucosidase solution was prepared with sodium phosphate buffer (pH 6.8, 0.1 M) and diluted to 1 U/mL. Subsequently, the tested sample solution (100 µL), diluted α-glucosidase solution (20 µL), and 0.53 mM p-NPG (380 µL) were mixed and incubated at 37 °C for 40 min. […] The activity was calculated by the following equation. α-Glucosidase inhibition (%) = (Acontrol − Asample)/Acontrol × 100% where Asample and Acontrol represent the absorbance values of the tested sample and control, respectively.

Test [5] concerns the target T2, acetylcholinesterase (AChE) (Electrophorus electricus, UniProt O42275).
T2 construct: purchased Sigma-Aldrich
Put plainly: biochemical. As to the method: The AChE inhibition was carried out based on the previous method. The sodium phosphate buffer (pH 8.0, 0.1 M, 140 μL), DTNB (10 μL), tested sample (20 μL), and AChE solution (15 μL) were mixed in a 96-well plate. After incubating at room temperature for 10 min, the absorbance was measured at 405 nm. The inhibitory effect was calculated by the following equation. Acetylcholinesterase inhibition (%) = (Acontrol − Asample)/Acontrol × 100% where Asample and Acontrol represent the absorbance values of the tested sample and control, respectively.

Test [6] deals with NO production of LPS-induced RAW264.7 cells. Put plainly: LPS-induced NO inhibition assay (Griess). It is filed as cell-based, Murine. The following applies: Mus musculus, read-out: NO inhibition IC50. The method, then: LPS-induced NO production of RAW264.7 cells was determined by Griess assay. The 100 μL quantity of cells was seeded in 96-well plates at an amount of 5 × 10^4 cells/well and incubated for 24 h. The cells were then treated with 100 ng/mL LPS with vehicle or different concentrations of the tested sample for 24 h. […] The absorbance was measured at 540 nm to calculate the NO inhibition. Sodium nitrite was used to generate a standard curve.
In general terms: Griess reagent forms a coloured azo dye with nitrite.

Test [7] concerns iNOS expression in LPS-stimulated RAW264.7 cells. Put plainly: Western blot analysis of iNOS expression. The following applies: compared to the LPS group (100 ng/mL LPS). Type of test: cell-based, Murine.
[8] abbreviates: isolated components (Table 4), mM Trolox equivalents per g.
[9] abbreviates: 100 ng/mL LPS, 24 h, RAW264.7 cells.
Where [10] appears, read: solvent extracts, concentration causing 50% free radical scavenging.

T2 sequence (O42275 24-633): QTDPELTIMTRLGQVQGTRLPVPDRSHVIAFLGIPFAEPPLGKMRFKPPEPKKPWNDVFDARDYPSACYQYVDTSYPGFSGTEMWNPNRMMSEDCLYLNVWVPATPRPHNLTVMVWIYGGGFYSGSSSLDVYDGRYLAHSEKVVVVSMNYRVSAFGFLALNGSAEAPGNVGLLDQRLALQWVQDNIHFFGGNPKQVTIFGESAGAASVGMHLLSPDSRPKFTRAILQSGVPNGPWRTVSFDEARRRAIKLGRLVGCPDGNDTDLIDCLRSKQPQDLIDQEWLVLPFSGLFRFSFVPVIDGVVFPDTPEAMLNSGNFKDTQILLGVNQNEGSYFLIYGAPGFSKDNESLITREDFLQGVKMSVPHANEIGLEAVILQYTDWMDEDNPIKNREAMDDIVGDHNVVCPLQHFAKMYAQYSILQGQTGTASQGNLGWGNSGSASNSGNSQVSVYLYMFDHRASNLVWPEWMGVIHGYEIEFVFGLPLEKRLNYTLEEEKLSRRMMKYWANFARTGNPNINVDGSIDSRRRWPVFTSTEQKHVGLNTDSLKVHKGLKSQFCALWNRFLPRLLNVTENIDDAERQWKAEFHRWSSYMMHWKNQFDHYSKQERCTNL
T1 sequence (P53341 whole entry): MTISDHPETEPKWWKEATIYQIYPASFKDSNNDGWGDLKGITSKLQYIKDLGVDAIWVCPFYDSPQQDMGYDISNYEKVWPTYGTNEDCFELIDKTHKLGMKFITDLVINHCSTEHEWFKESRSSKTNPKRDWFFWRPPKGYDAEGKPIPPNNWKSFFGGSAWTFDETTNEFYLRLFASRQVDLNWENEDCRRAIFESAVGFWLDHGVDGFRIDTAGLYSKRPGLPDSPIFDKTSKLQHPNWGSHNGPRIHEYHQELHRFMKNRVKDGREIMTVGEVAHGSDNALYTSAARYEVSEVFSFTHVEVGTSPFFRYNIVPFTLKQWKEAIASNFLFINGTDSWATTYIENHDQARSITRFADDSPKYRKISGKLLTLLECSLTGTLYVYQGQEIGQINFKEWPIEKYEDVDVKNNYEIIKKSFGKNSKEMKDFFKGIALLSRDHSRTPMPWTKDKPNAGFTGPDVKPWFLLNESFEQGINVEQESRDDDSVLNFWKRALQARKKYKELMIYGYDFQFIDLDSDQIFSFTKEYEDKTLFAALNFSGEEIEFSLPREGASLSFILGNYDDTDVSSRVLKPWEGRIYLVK

Usually IC50 stands for the concentration that gives 50% inhibition. In the case of `Oc1cc(O)c2c(c1)O[C@H](c1ccc(O)c(O)c1)[C@H](O)C2` [Epicatechin (5), epicatechin], the EC50 in test [1] worked out at 56.9 ± 0.91 µM; in test [2], 7.83 ± 0.34 µM; in test [3], 210 ± 9.46 µM. In test [4] (setting [8]), the “TE FRAP” value is 1694.43 ± 21.45 ^A mM/g. Also, the half-inhibitory concentration (IC50) against α-glucosidase is greater than 800 µM; in test [5] (isolated components (Table 5)), 405 ± 26.3 µM; in test [6] (setting [9]), greater than 50 µM.
`C[C@@H]1O[C@@H](OC[C@H]2O[C@@H](Oc3c(-c4ccc(O)c(O)c4)oc4cc(O)cc(O)c4c3=O)[C@H](O)[C@@H](O)[C@@H]2O)[C@H](O)[C@H](O)[C@H]1O` [Rutin (6), rutin]: the EC50 was 66.3 ± 1.68 µM in test [1], 20 ± 0.3 µM in test [2] and 6.69 ± 0.25 µM in test [3]. The “TE FRAP” value in test [4] (setting [8]) is listed as 1609.10 ± 25.67 ^A mM/g. Further, the half-inhibitory concentration (IC50) in test [5] (isolated components (Table 5)) is 452 ± 12.9 µM; in test [6] (RAW264.7, 24 h) it was 29.5 ± 1.19 µM.
`O=C(/C=C/c1ccc(O)c(O)c1)O[C@@H]1C[C@](O)(C(=O)O)C[C@@H](O)[C@H]1O` [Chlorogenic acid, chlorogenic acid, reference compound]: the figures for the half-inhibitory concentration (IC50) in test [5] (isolated components (Table 5)) and in test [5] (solvent extracts (Table 3)) were 320 ± 4.13 µM and 386 µM, respectively.
In the case of `O=c1cc(-c2ccc(O)c(O)c2)oc2cc(O[C@@H]3O[C@H](CO)[C@@H](O)[C@H](O)[C@H]3O)cc(O)c12` [Cynaroside, cynaroside, reference compound], in test [3], the EC50 was 38.3 ± 0.69 µM. Besides, in test [3] (setting [10]), the “SC50 Superoxide” value is 13.41 ± 2.56 ^A μg/mL.
Regarding `C[C@H]1[C@H](C)CC[C@]2(C(=O)O)CC[C@]3(C)C(=CC[C@@H]4[C@@]5(C)CC[C@H](O)C(C)(C)[C@@H]5CC[C@]43C)[C@H]12` [Ursolic acid (2), ursolic acid], the results for the IC50 in test [5] (isolated components (Table 5)) and in test [6] (setting [9]) were 311 ± 7.31 µM and 20.2 ± 1.46 µM, respectively. In addition, the “Inhibition of iNOS expression” value stood at 26.7% in test [7] (10 μM) and 68.1% in test [7] (20 μM).
As to `CC1(C)CC[C@]2(C(=O)O)CC[C@]3(C)C(=CC[C@@H]4[C@@]5(C)CC[C@H](O)C(C)(C)[C@@H]5CC[C@]43C)[C@@H]2C1` [Oleanolic acid (1), oleanolic acid], the EC50 in test [1], in test [2] and in test [3] was greater than 400 µM in each case. In addition, the “TE FRAP” value in test [4] (setting [8]) is less than 1 mM/g. The IC50 in test [6] (RAW264.7, 24 h) was greater than 50 µM.
As for `C[C@H]1[C@H](C)CC[C@]2(C(=O)O)CC[C@]3(C)C(=CC[C@@H]4[C@@]5(C)C[C@@H](O)[C@H](O)C(C)(C)[C@@H]5CC[C@]43C)[C@H]12` [Corosolic acid (3), corosolic acid], the EC50 in test [1], in test [2] and in test [3] was greater than 400 µM each time. Also, the “TE FRAP” value in test [4] (setting [8]) is less than 1 mM/g. Further, the 50% inhibitory concentration (IC50) at α-glucosidase (isolated components (Table 5), read-out: IC50 α-Glucosidase) was determined as 13.8 ± 2.11 µM; in test [5] (isolated components (Table 5)), 283 ± 17 µM.
As for `Cc1cc(C(C)(C)C)c(O)c(C(C)(C)C)c1` [BHT, reference compound], the results for the EC50 in test [1] and in test [2] were 881 ± 70.4 µM and 25.87 ± 0.01 µM, respectively. Also, the “SC50 DPPH” value in test [1] (setting [10]) is 230.05 ± 25.40 ^AB μg/mL. Besides, the “SC50 ABTS” value in test [2] (setting [10]) was 29.95± 1.04 ^A μg/mL. The “TE FRAP” value in test [4] (setting [8]) is 3082.65 ± 213.69 ^B mM/g; in test [4] (solvent extracts (Table 2), mM Trolox equivalents per gram), 3370.27 ± 256.53 ^D mM/g.
Regarding `CC1CCC2(C(=O)O)CCC3(C)C(=CCC4C5(C)CC(O)C(O)C(C)(C)C5CCC43C)C2C1(C)O` (stereo not shown) [Tormentic acid (4), tormentic acid], the EC50 in test [1], in test [2] and in test [3] was greater than 400 µM each time. Besides, the “TE FRAP” value in test [4] (setting [8]) is reported as less than 1 mM/g. Also, the values for the IC50 (on α-glucosidase; in test [5] (isolated components (Table 5)); in test [6] (setting [9])) were 320 ± 26.1 µM, 281 ± 8.55 µM and greater than 50 µM, respectively.
On to `O=c1c(O)c(-c2ccc(O)c(O)c2)oc2cc(O)cc(O)c12` [Quercetin, quercetin, reference compound], for which, in test [6] (setting [9]), the IC50 is 17.1 ± 1.63 µM.
